Some results are limits rather than exact numbers.

The source of these data is ChEMBL document CHEMBL3638480, “Inhibitors” (2013).

For the assay, the target named is Glutaminyl-peptide cyclotransferase (Homo sapiens, UniProt Q16769). Briefly: Spectrophotometic Assay: Spectrophotometic Assay: This novel assay was used to determine the kinetic parameters for most of the QC substrates. QC activity was analyzed spectrophotometrically using a continuous method, that was derived by adapting a previous discontinuous assay (Bateman, R.C.J. 1989 J Neurosci Methods 30, 23-28).
Glutaminyl-peptide cyclotransferase, sequence (Q16769 whole entry): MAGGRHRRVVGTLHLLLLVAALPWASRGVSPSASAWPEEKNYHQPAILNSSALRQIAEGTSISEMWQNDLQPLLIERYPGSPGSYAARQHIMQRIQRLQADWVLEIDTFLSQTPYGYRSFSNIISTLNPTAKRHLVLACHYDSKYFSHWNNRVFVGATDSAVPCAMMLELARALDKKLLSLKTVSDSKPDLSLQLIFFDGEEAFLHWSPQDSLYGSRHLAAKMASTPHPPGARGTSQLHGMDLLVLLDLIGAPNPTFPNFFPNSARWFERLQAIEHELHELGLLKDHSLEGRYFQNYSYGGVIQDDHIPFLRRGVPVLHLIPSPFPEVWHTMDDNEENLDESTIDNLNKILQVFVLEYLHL
Regarding `CCCOc1ccc(C2CN(Cc3ccccc3)C(=O)N2c2ccc3[nH]cnc3c2)cc1` (centres undefined), the IC50 is under 10 µM.
Next, `O=C1OCC(c2ccc(N3CCCC3)cc2)N1c1ccc2[nH]cnc2c1` (centres undefined): under 10 µM; `CCCOc1ccc(C2CN(CCc3ccccc3)C(=O)N2c2ccc3[nH]cnc3c2)cc1` (centres undefined): under 10 µM.
Next, `O=C1NCC(c2cc(F)cc(C(F)(F)F)c2)N1c1ccc2[nH]cnc2c1` (centres undefined): under 10 µM; `O=C1OC[C@H](C2CCC(c3ccccc3)CC2)N1c1ccc2[nH]cnc2c1` (some centres undefined): under 10 µM; `CN1CCN(c2ccc([C@H]3COC(=O)N3c3ccc4nc[nH]c4c3)cc2)CC1`: under 10 µM.
`O=C1NCC(c2ccc(OC(F)(F)C(F)F)cc2)N1c1ccc2[nH]cnc2c1` (centres undefined) showed an IC50 of under 10 µM.
For the molecule `COc1cc(F)c(C2CNC(=O)N2c2ccc3nc[nH]c3c2)c(F)c1` (centres undefined), the IC50 was under 10 µM.
Next, `CCN(CC)c1ccc([C@H]2CNC(=O)N2c2ccc3[nH]cnc3c2)cc1`: under 10 µM; `O=C1OC[C@H](CCc2ccccc2)N1c1ccc2[nH]cnc2c1`: under 10 µM.
`O=C1NCC(c2c(F)cccc2F)N1c1ccn2ccnc2c1` (centres undefined) displayed an IC50 of under 10 µM.
Consider `CCCOc1ccc([C@H]2[C@H](c3ccccc3)OC(=O)N2c2ccc3[nH]cnc3c2)cc1`, for which the IC50 was under 10 µM.
In the case of `O=C1NCC(c2ccc(OCCCN3CCOCC3)cc2)N1c1ccc2nc[nH]c2c1` (centres undefined), the IC50 is under 10 µM.
`C[C@@H]1OC(=O)N(c2ccc3nc[nH]c3c2)[C@H]1c1ccccc1`: the IC50 was under 10 µM.
With `O=C1NCC(c2cccc(Cl)c2Cl)N1c1ccc2nc[nH]c2c1` (centres undefined), the IC50 was under 10 µM.
In turn, `O=C1NCC(c2c(Cl)cccc2Cl)N1c1ccc2nc[nH]c2c1` (centres undefined) yielded an IC50 of under 10 µM.
Next, `CC(c1ccccc1)C1COC(=O)N1c1ccc2[nH]cnc2c1` (centres undefined): under 10 µM; `CCCCCOc1ccc(C2CNC(=O)N2c2ccc3nc[nH]c3c2)cc1` (centres undefined): under 10 µM; `O=C1NCC(c2ccc(N3CCN(c4ccccc4)CC3)cc2)N1c1ccn2ccnc2c1` (centres undefined): under 10 µM.
Molecule `CN1CCC(c2ccc([C@H]3CNC(=O)N3c3ccc4[nH]cnc4c3)cc2)CC1` gave an IC50 of under 10 µM.
In the case of `O=C1NCC(c2ccccc2OCCN2CCOCC2)N1c1ccc2nc[nH]c2c1` (centres undefined) it was under 10 µM; in that of `O=C1OC[C@H](c2cccc(N3CCN(c4ccccc4)CC3)c2)N1c1ccc2nc[nH]c2c1`, under 10 µM; in that of `O=C1OC[C@H](c2ccc(Cl)cc2)N1c1ccc2nc[nH]c2c1`, under 10 µM.
In the case of `O=C1NCC(c2cccc(N3CCCCC3)c2)N1c1ccn2ccnc2c1` (centres undefined) it was under 10 µM; in that of `O=C1OCC(c2ccc(C3CCC(N4CCOCC4)CC3)cc2)N1c1ccc2[nH]cnc2c1` (centres undefined), under 10 µM; in that of `O=C1NCC(c2ccc(C3CCCCC3)cc2)N1c1ccc2[nH]cnc2c1` (centres undefined), under 10 µM.
Next, `O=C1NCC(c2ccc3c(c2)OCCO3)N1c1ccc2[nH]cnc2c1` (centres undefined): under 10 µM; `O=C1NCC(c2cc(C(F)(F)F)ccc2F)N1c1ccc2[nH]cnc2c1` (centres undefined): under 10 µM; `O=C1NCC(c2ccc(OCCN3CCOCC3)cc2)N1c1ccc2nc[nH]c2c1` (centres undefined): under 10 µM.
For the molecule `O=C1OC[C@H](C2CCN(c3ccccc3)CC2)N1c1ccc2[nH]cnc2c1`, the IC50 was under 10 µM.
Next, `O=C1OC[C@H](c2ccc(OCCN3CCNCC3)cc2)N1c1ccc2[nH]cnc2c1`: under 10 µM.
As to `CCCOc1ccc(C2CN(Cc3ccc4ccccc4c3)C(=O)N2c2ccc3[nH]cnc3c2)cc1` (centres undefined), the IC50 was under 10 µM.
`O=C1OC[C@H](C2CCCCC2)N1c1ccc2[nH]cnc2c1` showed an IC50 of under 10 µM.
In the case of `COc1cccc(C2CNC(=O)N2c2ccc3nc[nH]c3c2)c1` (centres undefined) it was under 10 µM.
In the case of `O=C1NCC(c2ccc(C3CCCCC3)cc2)N1c1ccn2ccnc2c1` (centres undefined) it was under 10 µM; in that of `COc1ccc(C2CN(N)C(=O)N2c2ccc3[nH]cnc3c2)cc1` (centres undefined), under 10 µM.
In the case of `CN(C)CCCc1ccc([C@@H]2COC(=O)N2c2ccc3[nH]cnc3c2)cc1` it was under 10 µM.
The molecule `CN(C)CCOc1ccc([C@H]2CNC(=O)N2c2ccc3[nH]cnc3c2)cc1` gave an IC50 of under 10 µM.
In the case of `O=C1NCC(c2cccc(Cl)c2)N1c1ccc2nc[nH]c2c1` (centres undefined) it was under 10 µM; in that of `COc1cc(F)c(C2COC(=O)N2c2ccc3[nH]cnc3c2)c(F)c1` (centres undefined), under 10 µM; in that of `COCCN(CCOC)c1ccc([C@H]2COC(=O)N2c2ccc3[nH]cnc3c2)cc1`, under 10 µM.
In the case of `O=C1NCC(c2ccc(O)cc2)N1c1ccc2[nH]cnc2c1` (centres undefined) it was under 10 µM; in that of `CC(C)Oc1ccc(C[C@H]2COC(=O)N2c2ccc3[nH]cnc3c2)cc1`, under 10 µM.
Molecule `CN1CCN(c2cccc([C@H]3COC(=O)N3c3ccc4nc[nH]c4c3)c2)CC1` yielded an IC50 of under 10 µM.
`O=C1OC[C@H](c2ccccc2)N1c1ccc2[nH]cnc2c1`: the IC50 is under 10 µM.
In the case of `COCCCc1ccc([C@H]2COC(=O)N2c2ccc3[nH]cnc3c2)cc1` it was under 10 µM; in that of `O=C1NCC(C2CCC(c3ccccc3)CC2)N1c1ccc2nc[nH]c2c1` (centres undefined), under 10 µM; in that of `Cc1nc2ccc(N3C(=O)OC[C@@H]3c3ccccc3)cc2[nH]1`, under 10 µM.
Turning to `O=C1NCC(c2ccc3c(c2)OC(F)(F)O3)N1c1ccc2[nH]cnc2c1` (centres undefined), the IC50 was under 10 µM.
In the case of `O=C1CCC(c2ccc(C3COC(=O)N3c3ccc4[nH]cnc4c3)cc2)CC1` (centres undefined) it was under 10 µM.
Next, `O=C1NCC(c2ccc(N3CCN(c4ccccc4)CC3)cc2)N1c1ccc2nc[nH]c2c1` (centres undefined): under 10 µM.
In the case of `O=C1NCC(c2ccc(Cl)cc2)N1c1ccc2[nH]cnc2c1` (centres undefined) it was under 10 µM; in that of `COCCOc1ccc([C@H]2COC(=O)N2c2ccc3[nH]cnc3c2)cc1`, under 10 µM.
On to `CCCCOc1ccc(C2CNC(=O)N2c2ccc3nc[nH]c3c2)cc1` (centres undefined), for which the IC50 is under 10 µM.
As for `O=C1NCC(c2ccccc2Cl)N1c1ccc2nc[nH]c2c1` (centres undefined), the IC50 was under 10 µM.
Next, `O=C1NCC(c2ccc(C3CCOCC3)cc2)N1c1ccc2[nH]cnc2c1` (centres undefined): under 10 µM; `COc1ccc(C2CNC(=O)N2c2ccc3nc[nH]c3c2)cc1F` (centres undefined): under 10 µM.
In turn, `COCCCc1ccc(C2CNC(=O)N2c2ccc3[nH]cnc3c2)cc1` (centres undefined) had an IC50 of under 10 µM.
In the case of `O=C1c2ccccc2[C@H](c2ccc(Cl)cc2)N1c1ccc2[nH]cnc2c1` it was under 10 µM; in that of `O=C1NCC(C2CCN(c3ccccc3)CC2)N1c1ccc2nc[nH]c2c1` (centres undefined), under 10 µM; in that of `O=C1OCC(c2ccc(C3CCOCC3)cc2)N1c1ccc2[nH]cnc2c1` (centres undefined), under 10 µM.
In the case of `COc1ccc([C@H]2[C@@H](C)NC(=O)N2c2ccc3nc[nH]c3c2)cc1` it was under 10 µM; in that of `O=C1c2ccccc2C(c2ccc(Cl)cc2)N1c1ccc2[nH]cnc2c1` (centres undefined), under 10 µM; in that of `O=C1OCC(c2ccc(C3CCC(O)CC3)cc2)N1c1ccc2[nH]cnc2c1` (centres undefined), under 10 µM.
Next, `O=C1OC[C@H](c2ccc(OCCN3CCOCC3)cc2)N1c1ccc2[nH]cnc2c1`: under 10 µM.
Take `O=C1NCC(c2ccc(-c3ccccc3)c(F)c2)N1c1ccc2[nH]cnc2c1` (centres undefined): the IC50 is under 10 µM.
In the case of `COc1cc(C2CNC(=O)N2c2ccn3ccnc3c2)cc2c1OCO2` (centres undefined) it was under 10 µM.
Next, `O=C1OC[C@H](c2cccc(N3CCOCC3)c2)N1c1ccc2[nH]cnc2c1`: under 10 µM.
Next, `COCCOc1ccc(C2CNC(=O)N2c2ccc3[nH]cnc3c2)cc1` (centres undefined): under 10 µM.
Turning to `O=C1OCC(c2ccc(OC3CCCCC3)cc2)N1c1ccc2[nH]cnc2c1` (centres undefined), the IC50 was under 10 µM.
As to `O=C1NCC(c2ccc(N3CCOCC3)c(Cl)c2)N1c1ccc2nc[nH]c2c1` (centres undefined), the IC50 was under 10 µM.
Next, `COc1cc(F)c(C2CNC(=O)N2c2ccn3ccnc3c2)c(F)c1` (centres undefined): under 10 µM; `O=C1OC[C@H](CC2CCCCC2)N1c1ccc2[nH]cnc2c1`: under 10 µM.
In the case of `O=C1NCC(c2ccc(Cl)c(Cl)c2)N1c1ccc2nc[nH]c2c1` (centres undefined) it was under 10 µM; in that of `CCCOc1ccc([C@H]2COC(=O)N2c2cc(C)c3[nH]cnc3c2)cc1`, under 10 µM; in that of `O=C1OC[C@H](c2ccc(N3CCOCC3)cc2)N1c1ccc2[nH]cnc2c1`, under 10 µM.
In the case of `O=C1OC[C@H](c2ccccc2)N1c1cc(F)c2[nH]cnc2c1` it was under 10 µM; in that of `O=C1NC[C@H](c2ccc(C3CCC(F)(F)CC3)cc2)N1c1ccc2[nH]cnc2c1`, under 10 µM; in that of `O=C1NCC(c2ccc(C(F)(F)F)c(F)c2)N1c1ccc2nc[nH]c2c1` (centres undefined), under 10 µM.
As to `O=C1NCC(c2ccc(N3CCOCC3)cc2)N1c1ccc2[nH]cnc2c1` (centres undefined), the IC50 is under 10 µM.
In the case of `CCCOc1ccc(C2CCC(=O)N2c2ccc3[nH]cnc3c2)cc1` (centres undefined) it was under 10 µM; in that of `O=C1OC[C@H](c2ccc(N(C3CC3)C3CC3)cc2)N1c1ccc2[nH]cnc2c1`, under 10 µM.
Next, `O=C1NCC(c2ccc(-c3ccccc3)c(F)c2)N1c1ccn2ccnc2c1` (centres undefined): under 10 µM; `O=C1OC[C@H](c2ccc(-c3cccc(Cl)c3)cc2)N1c1ccc2nc[nH]c2c1`: under 10 µM; `O=C1NCC(c2cccc(-c3ccccc3)c2)N1c1ccc2[nH]cnc2c1` (centres undefined): under 10 µM.
In the case of `O=C1NCC(c2ccc(OC3CCCCC3)cc2)N1c1ccc2[nH]cnc2c1` (centres undefined) it was under 10 µM.
`O=C1NCC(c2ccc(-c3cccc(Cl)c3)cc2)N1c1ccc2[nH]cnc2c1` (centres undefined) had an IC50 of under 10 µM.
Next, `CCN(CC)c1ccc([C@H]2COC(=O)N2c2ccc3[nH]cnc3c2)cc1`: under 10 µM.
Next, `O=C1NCC(c2ccc(C(F)(F)F)cc2F)N1c1ccc2[nH]cnc2c1` (centres undefined): under 10 µM.
In the case of `CCCOc1ccc(C[C@H]2COC(=O)N2c2ccc3[nH]cnc3c2)cc1` it was under 10 µM; in that of `O=C1OC[C@H](c2ccc(N3CCN(c4ccccc4)CC3)cc2)N1c1ccn2ccnc2c1`, under 10 µM.
As to `O=C1OC[C@H](c2ccc3c(c2)OCO3)N1c1ccc2nc[nH]c2c1`, the IC50 is under 10 µM.
Molecule `CCCOc1ccc(C2CN(CCCc3ccccc3)C(=O)N2c2ccc3[nH]cnc3c2)cc1` (centres undefined) had an IC50 of under 10 µM.
Next, `COc1cc(C2CNC(=O)N2c2ccc3[nH]cnc3c2)ccc1F` (centres undefined): under 10 µM.
